The record followed here is EP0951284B1, “[…] DERIVATIVES” (priority 1996, dated 1998).

Counter-ions that a name gives are not always drawn.

For data set [1], the target named is T1, whole brain AChE (Mus musculus, UniProt P21836).
T1 construct: the brains rapidly removed (minus cerebellum), weighed and homogenized in 0.1M phosphate buffer pH 8.0; from tissue; host or cells: mouse brain (minus cerebellum) homogenate supernatant
T1 sequence (P21836 32-614): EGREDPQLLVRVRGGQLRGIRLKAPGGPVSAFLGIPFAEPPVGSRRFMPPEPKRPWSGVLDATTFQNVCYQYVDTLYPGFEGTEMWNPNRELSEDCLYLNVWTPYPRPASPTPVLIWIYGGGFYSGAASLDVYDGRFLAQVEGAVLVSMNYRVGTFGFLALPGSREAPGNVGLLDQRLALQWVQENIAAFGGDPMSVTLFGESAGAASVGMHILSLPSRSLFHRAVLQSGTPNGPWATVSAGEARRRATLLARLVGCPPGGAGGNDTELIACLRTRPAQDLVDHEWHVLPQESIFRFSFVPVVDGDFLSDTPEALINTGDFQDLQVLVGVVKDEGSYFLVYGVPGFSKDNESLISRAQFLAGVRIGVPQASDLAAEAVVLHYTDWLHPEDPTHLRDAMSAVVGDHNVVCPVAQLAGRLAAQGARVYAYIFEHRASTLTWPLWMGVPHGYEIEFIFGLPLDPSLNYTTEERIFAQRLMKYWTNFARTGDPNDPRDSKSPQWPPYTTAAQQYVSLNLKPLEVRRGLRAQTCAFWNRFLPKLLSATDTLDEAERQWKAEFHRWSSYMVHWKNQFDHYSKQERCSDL
Description: Ex vivo measurement of brain AChE inhibition after sub-cutaneous administration. The conditions noted are these: for Time to peak activity t / Time to return to 50% of peak t: AChE inhibition; for ED50: sc, sub-cutaneous, mouse whole brain, at peak of activity, read-out: AChE Inhibition Ex vivo ED50 (AC). The class given is in vivo, mice. On the procedure: Test drugs or saline were administered sub-cutaneously to male mice (Sabra strain, 28-35g). At least 4-5 mice were used per dose and a minimum of 3 doses per drug were tested. The mice were sacrificed 15, 30, 60, 70, 90, 120 or 180 minutes after drug administration, the brains rapidly removed (minus cerebellum), weighed and homogenized in 0.1M phosphate buffer pH 8.0, containing Triton (1mg/100g tissue) and centrifuged to remove cell debris. Aliquots (25 µl) of the supernatant were then incubated with acetylthiocholine and DTNB. AChE activity measured as described above. The % inhibition of whole brain AChE by each dose of drug was calculated by comparison with enzyme activity from 3 saline treated control mice run at the same time.

Data set [2] deals with MAO-B. The data set is described as follows: Inhibition of MAO activity ex vivo (brain tissue), PEA substrate. The conditions noted are these: mouse brain tissue. The class given is in vivo, mice. On the procedure:
(§1) Male Sabra mice, weighing 45-50g were injected with test compound solutions (prepared in 0.9% saline). Each dose was administered to two or three mice. The mice were sacrificed two hours after drug administration or at a time corresponding to the peak AChE inhibition time (see Table 6). The brain and liver were rapidly dissected and stored in appropriate vials on ice. The tissues were weighed, diluted to 1/20 in sucrose 0.3M and stored at -20°C before performance of the MAO assay described above. The results given in Table 6 relate to measurements made on brain tissue only.

Data set [3] addresses T2, MAO-B (Rattus norvegicus, UniProt P19643).
T2 sequence (P19643 1-520): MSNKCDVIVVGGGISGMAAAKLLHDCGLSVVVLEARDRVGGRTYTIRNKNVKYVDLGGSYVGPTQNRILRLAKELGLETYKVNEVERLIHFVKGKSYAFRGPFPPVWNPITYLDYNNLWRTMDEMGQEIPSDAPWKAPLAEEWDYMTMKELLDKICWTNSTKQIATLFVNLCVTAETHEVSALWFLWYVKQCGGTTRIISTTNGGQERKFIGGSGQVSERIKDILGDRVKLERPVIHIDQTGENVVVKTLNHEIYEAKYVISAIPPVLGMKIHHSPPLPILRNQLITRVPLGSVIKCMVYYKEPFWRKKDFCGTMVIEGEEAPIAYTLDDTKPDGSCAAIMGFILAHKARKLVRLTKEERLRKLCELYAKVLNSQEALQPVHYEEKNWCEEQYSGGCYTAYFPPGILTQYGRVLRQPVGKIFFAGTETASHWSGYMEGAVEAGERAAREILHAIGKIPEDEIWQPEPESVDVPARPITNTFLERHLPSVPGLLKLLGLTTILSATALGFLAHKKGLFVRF
The data set is described as follows: Inhibition of MAO activity in vitro, rat brain homogenate, PEA substrate. The class given is biochemical. Details: The MAO enzyme source was a homogenate of rat brain in 0.3M sucrose; from tissue; host or cells: rat brain homogenate (600G supernatant). To be noted: PEA 50µM.
Description: (§2) The MAO enzyme source was a homogenate of rat brain in 0.3M sucrose, which was centrifuged at 600G for 15 minutes. The supernatant was diluted appropriately in 0.05M phosphate buffer, and pre-incubated with serial dilutions of test compounds for 20 minutes at 37°C. ^14C-Labeled substrates (2-phenylethylamine, hereinafter PEA; 5-hydroxytryptamine, hereinafter 5-HT) were then added, and the incubation continued for a further 20 minutes (PEA), or 30-45 minutes (5-HT). Substrate concentrations used were 50µM (PEA) and 1mM (5-HT). In the case of PEA, enzyme concentration was chosen so that not more than 10% of the substrate was metabolized during the course of the reaction. The deaminated products were extracted into toluene-ethyl acetate (1:1, v/v) containing 0.6% (w/v) 2,5-diphenyloxazole prior to determination by liquid scintillation counting. Radioactivity in the eluate indicates the production of neutral and acidic metabolites formed as a result of MAO activity. Activity of MAO in the sample was expressed as a percentage of control activity in the absence of inhibitors after subtraction of appropriate blank values The activity determined using PEA as substrate is referred to as MAO-B, and that determined using 5-HT as MAO-A.

The target of data set [4] is T3, MAO-A (Rattus norvegicus, UniProt P21396).
T3 sequence (P21396 1-526): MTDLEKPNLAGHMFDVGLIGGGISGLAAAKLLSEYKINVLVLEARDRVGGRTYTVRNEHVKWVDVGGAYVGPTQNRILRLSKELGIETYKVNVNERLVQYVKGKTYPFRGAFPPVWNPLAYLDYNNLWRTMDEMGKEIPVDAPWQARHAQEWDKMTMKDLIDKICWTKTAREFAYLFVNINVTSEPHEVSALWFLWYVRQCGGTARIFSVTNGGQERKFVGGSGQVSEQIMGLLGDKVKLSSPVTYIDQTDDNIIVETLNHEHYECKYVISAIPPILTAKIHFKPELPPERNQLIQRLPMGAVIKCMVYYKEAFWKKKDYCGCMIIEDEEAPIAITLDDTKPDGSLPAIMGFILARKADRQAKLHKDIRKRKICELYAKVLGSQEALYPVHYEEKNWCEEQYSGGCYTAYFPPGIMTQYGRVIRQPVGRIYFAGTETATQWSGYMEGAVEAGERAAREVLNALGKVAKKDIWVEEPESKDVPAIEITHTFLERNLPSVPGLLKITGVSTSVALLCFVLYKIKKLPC
The data set is described as follows: Inhibition of MAO activity in vitro, rat brain homogenate, 5-HT substrate.
Description: as §2

Data set [5] relates to MAO-A. The data set is described as follows: Inhibition of MAO activity ex vivo (brain tissue), 5-HT substrate. The class given is in vivo, mice. To be noted: mouse brain tissue. On the procedure:
as §1

Data set [6] in a line: Acute toxicity in mice (sub-cutaneous, lethality within 6 hours). The conditions noted are these: mouse, in vivo, sc; for selectivity ratio: LD50 divided by ED50 (acetylcholine esterase ex vivo), read-out: Therapeutic Ratio (LD/AC); for LD50 at 6 h: sub-cutaneous, mice, within 6 hours. The method, then: Drugs were administered sub-cutaneously in at least 3 doses, to a minimum of 10 mice per dose. […] Therapeutic Ratio was calculated as LD50 divided by ED50(acetylcholine esterase ex vivo).

As a reminder, the ED50 is the dose that gives a 50% effect, or the effect in half of the subjects. As usually defined, the IC50 is the point on the concentration scale where inhibition reaches its midpoint. Lower therefore signals greater potency in that assay. As a reminder, the LD50 is the dose at which mortality reaches 50%. A low value points to greater toxicity. Consider `C#CCNC(C)Cc1cccc(OC(=O)N(C)C)c1` (stereo not drawn) [Compound 16], for which, in data set [1], the “Time to peak activity t” value turned out to be 15 min, the “Time to return to 50% of peak t” value amounted to 70 min and the ED50 came to 2.3 µmol/kg. In addition, the “MAO-B Inhibition Ex vivo ED50” value in data set [2] is over 20 µmol/kg. Also, the IC50 in data set [3] was 6 µM. Also, the IC50 in data set [4] came to 7 µM. Besides, in data set [5], the “MAO-A Inhibition Ex vivo ED50” value was over 20 µmol/kg. In data set [6], the selectivity ratio worked out at 18.3 and the LD50 at 6 h was found to be 42 µmol/kg.
For the molecule `C#CCNCCc1cccc(OC(=O)N(C)C)c1` [Compound 11], in data set [1], the “Time to peak activity t” value came out at 15 min, the “Time to return to 50% of peak t” value turned out to be 70 min and the ED50 turned out to be 3.2 µmol/kg. Besides, the “MAO-B Inhibition Ex vivo ED50” value in data set [2] is >>30 µmoles/kg. Besides, inhibition in data set [3] was half-maximal at 25 µM (IC50). In data set [4], this molecule registered an IC50 of 2.5 µM. In addition, the “MAO-A Inhibition Ex vivo ED50” value in data set [5] came out at 40 µmol/kg. Also, in data set [6], the selectivity ratio was 13.8 and the LD50 at 6 h is 44.2 µmol/kg.
On to `C#CCNC(C)Cc1cccc(OC(=O)N(C)CC)c1` (stereo not drawn) [Compound 17, 3-(N-Me,N-Etcarbamyloxy)α-methyl, N-propargyl phenethylamine.HCl], for which, in data set [1], the “Time to peak activity t” value was in the range of 30 to 60 min, the “Time to return to 50% of peak t” value was 120 min and the ED50 was 64 µmol/kg. In addition, the “MAO-B Inhibition Ex vivo ED50” value in data set [2] worked out at 40 µmol/kg. Also, the IC50 in data set [3] is 2 µM. The IC50 in data set [4] stood at 12 µM. Also, in data set [5], the “MAO-A Inhibition Ex vivo ED50” value was over 40 µmol/kg. In data set [6], the selectivity ratio worked out at 9.4 and the LD50 at 6 h was determined as 600 µmol/kg.
For `C#CCN(C)CCc1cccc(OC(=O)N(C)C)c1` [Compound 12], in data set [1], the “Time to peak activity t” value fell in the range of 15 to 30 min, the “Time to return to 50% of peak t” value is on record as 120 min and the ED50 was 2.8 µmol/kg. Also, the “MAO-B Inhibition Ex vivo ED50” value in data set [2] turned out to be 21 µmol/kg. Also, in data set [3], half-maximal inhibition (IC50) required 2.5 µM. Moreover, the IC50 in data set [4] is 0.38 µM. Moreover, in data set [5], the “MAO-A Inhibition Ex vivo ED50” value worked out at 4 µmol/kg. Moreover, in data set [6], the selectivity ratio is 11.5 and the 50% lethal dose (LD50) at 6 h amounted to 46 µmol/kg.
